Test results reported in the supplement of paper PMC10307832.

What was measured:
Assay in all cases: relative viability (nuclei count vs DMSO), 5 days (fraction); higher = more cells survive
[1] = compound: C[C@@H](N)c1ccc(C(=O)Nc2ccnc3[nH]ccc23)cc1 + Cc1nc(Nc2ncc(C(=O)Nc3c(C)cccc3Cl)s2)cc(N2CCN(CCO)CC2)n1 [Dasatinib] (partner 0.075 µM)
How it was run: (§1)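 For relative viability, nuclei counts in treated wells were divided by those in vehicle wells. Lung cancer cell lines had been pin-tool dosed in 1536-well plates the day after seeding and cultured for 5 days, then fixed and stained in one step (final 0.05% Triton X-100, 1% formaldehyde, 1 ug/ml Hoechst) and imaged at 4×. Doses were one drug alone or a fixed anchor-drug dose plus five library-drug doses (not always all listed) in √10 steps, and values are duplicate-plate medians.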

[2] = compound: C[C@@H](N)c1ccc(C(=O)Nc2ccnc3[nH]ccc23)cc1 + CS(=O)(=O)CCNCc1ccc(-c2ccc3ncnc(Nc4ccc(OCc5cccc(F)c5)c(Cl)c4)c3c2)o1 [Lapatinib] (partner 2 µM)
How it was run: as §1

[3] = compound: C[C@@H](N)c1ccc(C(=O)Nc2ccnc3[nH]ccc23)cc1 + CC(=O)Nc1cccc(-n2c(=O)n(C3CC3)c(=O)c3c(Nc4ccc(I)cc4F)n(C)c(=O)c(C)c32)c1 [Trametinib] (partner 0.02 µM)
How it was run: as §1

[4] = compound: C1CNCCC1C2=CC(=NN2)C3=CC=NC=C3 + CS(=O)(=O)CCNCc1ccc(-c2ccc3ncnc(Nc4ccc(OCc5cccc(F)c5)c(Cl)c4)c3c2)o1 [Lapatinib] (partner 2 µM)
How it was run: as §1

Cell Line	relative viability ([1]; first compound 0.04 µM)	relative viability ([1]; first compound 0.1265 µM)	relative viability ([1]; first compound 0.4 µM)	relative viability ([1]; first compound 1.265 µM)	relative viability ([1]; first compound 4 µM)	relative viability ([2]; first compound 0.04 µM)	relative viability ([2]; first compound 0.1265 µM)	relative viability ([2]; first compound 0.4 µM)	relative viability ([2]; first compound 1.265 µM)	relative viability ([2]; first compound 4 µM)	relative viability ([3]; first compound 0.04 µM)	relative viability ([3]; first compound 0.1265 µM)	relative viability ([3]; first compound 0.4 µM)	relative viability ([3]; first compound 1.265 µM)	relative viability ([3]; first compound 4 µM)	relative viability ([4]; first compound 0.08 µM)	relative viability ([4]; first compound 0.8 µM)	relative viability ([4]; first compound 2.53 µM)	relative viability ([4]; first compound 8 µM)
H3255	0.344	0.432	0.519	0.331	0.4	0.306	0.304	0.302	0.334	0.306	0.704	0.694	0.748	0.757	0.583	0.265	0.255	0.262	0.261
NCI-H1792	0.831	0.875	0.826	0.672	0.534	0.923	0.922	0.966	0.607	0.783	0.5	0.465	0.597	0.698	0.324	0.893	0.851	0.913	0.788
NCI-H596	0.671	0.537	0.493		0.557	1.29	1.08	1.03	0.955	1.07	0.922	0.826	0.906	0.752	0.759	1.08	1.17	1.07	0.993
NCI-H2087	0.956	0.912	0.869		0.65	0.85	1.22	0.831	0.148	0.825	0.284	0.214	0.202	0.229	0.251	1.25	1.26	0.944	0.948
NCI-H661	0.702	0.878	0.893	0.723	0.55	0.503	0.587	0.607	0.401	0.449	0.48	0.595	0.571	0.475	0.494	0.466	0.475	0.479	0.55
EMC-BAC-2	0.263	0.337	0.314	0.266	0.315	0.86	0.896	0.898	0.986	0.897	0.958	1.04	1.03	1.01	0.969	0.682	0.927	0.897	0.87
NCI-H1355	0.516	0.738	0.764	0.671	0.427	0.973	0.972	1.03		0.924	0.482	0.427	0.446	0.433	0.393	0.971	0.948	1	0.935
NCI-H23	0.77	0.736	0.862		0.76	0.945	1.27	1.18		0.924	0.422	0.427	0.386		0.483	1.15	1.34	1.49	1.22
NCI-H1651	0.389	0.429	0.414	0.288	0.41	1.04	0.859	0.975	0.784	0.967	0.877	0.862	0.959	0.941	0.848	0.673	0.863	0.724	0.949
NCI-H1975	0.408	0.459	0.363	0.369	0.262	0.833	0.765	0.922	0.88	0.546	0.286	0.4	0.449	0.194	0.233	0.905	1.08	1.05	0.83
COR-L23	0.44	0.511	0.466	0.424	0.266	0.948	1.01	0.897	0.895	0.576	0.414	0.591	0.604	0.262	0.389	0.989	1.3	0.98	1.01
LOU-NH91	0.425	0.571	0.527	0.492	0.394	0.701	0.749	0.801	0.575	0.709	0.746	0.796	0.739	0.644	0.539	0.766	0.739	0.826	0.854
NCI-H647	0.15	0.172	0.157	0.166	0.133	0.961	1.07	1.16	1.06	0.901	0.387	0.47	0.46	0.424	0.385	1.06	1.26	1.15	1.01
NCI-H1915	0.315	0.262	0.276		0.308	0.908	0.972	0.966		0.848		0.299	0.298		0.239	0.964	1.09	1.02	0.946
NCI-H1734	0.347	0.445	0.38	0.284	0.351	1.02	1.15	1.01		1.12	0.735	0.698	0.708	0.668	0.582	0.856	1.07	1.15	1.07
NCI-H1993	0.745	0.754	0.856	0.917	0.8	0.791	0.858		0.776	0.87	0.607	0.519		0.569	0.511	0.764	0.881	0.837	0.778
LK-2	0.375		0.339		0.424	1.06	0.693	0.975	0.814	0.733	1.03	0.733	0.694	0.939	0.933	0.768	0.791	1.06	0.83
HCC-78	0.556	0.376	0.51	0.388	0.614	1.3	0.767	1.15	0.171	0.677	0.979	0.793	0.981	1.2	0.661	0.723		0.871	0.86

Cell Line	relative viability ([1]; first compound 0.04 µM)	relative viability ([1]; first compound 0.1265 µM)	relative viability ([1]; first compound 0.4 µM)	relative viability ([1]; first compound 1.265 µM)	relative viability ([1]; first compound 4 µM)	relative viability ([2]; first compound 0.04 µM)	relative viability ([2]; first compound 0.1265 µM)	relative viability ([2]; first compound 0.4 µM)	relative viability ([2]; first compound 1.265 µM)	relative viability ([2]; first compound 4 µM)	relative viability ([3]; first compound 0.04 µM)	relative viability ([3]; first compound 0.1265 µM)	relative viability ([3]; first compound 0.4 µM)	relative viability ([3]; first compound 1.265 µM)	relative viability ([3]; first compound 4 µM)	relative viability ([4]; first compound 0.08 µM)	relative viability ([4]; first compound 0.8 µM)	relative viability ([4]; first compound 2.53 µM)	relative viability ([4]; first compound 8 µM)
NCI-H2405	0.186	0.2	0.187	0.19	0.162		1.18	1.05	0.487	0.351		0.64	0.418	0.377	0.299	1.12	1.01	1.12	1.16
HOP-62	0.435	0.632	0.617	0.515	0.303	0.929	0.784	1.02	0.512	0.982	0.425	0.356	0.35	0.377	0.365	1.09	1.17	1.1	1.12
NCI-H650		0.41	0.393	0.245	0.32	0.626	0.837	0.859		0.696		0.959	0.968		1.03	0.966	0.773	1.11	0.951
NCI-H358	0.173	0.193	0.169	0.165	0.18	0.482	0.363	0.435	0.465	0.366	0.157	0.133	0.138	0.121	0.139	0.388	0.463	0.43	0.462
BEN	0.245	0.252	0.396	0.319	0.265	0.706	0.675	0.99	0.781	0.438	1.01	0.87	0.984	1.37	0.85	0.594	0.571	0.939	0.761
SW 1573	0.405	0.592	0.433	0.259	0.231	1.3	1.14	1.18	1.04	1.08	0.767	0.615	0.598	0.56	0.529	1.03	1.21	1.17	1.25
SK-MES-1	0.398	0.398	0.358	0.279	0.334	0.518	0.459	0.428	0.423	0.444	0.607	0.523	0.458	0.488	0.401	0.423	0.381	0.439	0.421
NCI-H1755	0.292	0.449	0.457	0.316	0.223	0.874	1	1.05	0.705	0.685	0.768	0.752	0.761	0.707	0.644	1.03	0.973	1.07	1
NCI-H2023	0.592	0.56	0.502	0.487	0.465	0.844	0.737	1.15	0.0713	0.99	0.607	0.619	0.657		0.586	0.615	0.909	1.03	0.974
LC-2-ad	0.717	0.639	0.814		0.389	0.899	0.922	1	0.967	0.661	0.957	0.911	0.883	0.926	0.727	1.04	1.05	1	0.914
NCI-H1666	0.727	0.803	0.822	0.722	0.625	0.724	0.618	0.967	0.835	0.928	0.852	0.903	0.981	0.916	0.926	0.522	0.739	0.845	0.625
201T	0.667	0.635	0.674	0.738	0.808	1	0.989	1.09	0.971	1.24	0.701	0.712	0.733	0.758	0.815	0.975	0.978	0.994	0.986
NCI-H2009	0.18	0.268	0.199	0.171	0.154	0.682	0.736	0.916	0.114	0.747	0.219	0.268	0.236	0.21	0.214	0.998	1.01	1.07	0.888
NCI-H1395	0.416	0.431	0.368	0.394	0.399	0.935	1.2	0.954		0.941	1.04	0.996	1.03		0.912	0.886	0.876	0.987	1.18
NCI-H2228	0.677	0.505	0.546	0.482	0.436	1.18	1.09	1.2	1.17	0.868	0.556	0.428	0.886	0.395	0.475	0.926	1.06	1.62	1.19
LU99A		0.507	0.536	0.495	0.508	1.1	1.09	1.13	0.753	0.906		0.586	0.52	0.477	0.483	0.974	1.18	1.28	1.1
NCI-H1437	0.451	0.292	0.372	0.471	0.393	0.842	0.782	0.825	0.772	0.737	0.647	0.572	0.681	0.601	0.638	0.765	0.912	0.827	0.769
